Test results reported in ChEMBL document CHEMBL1125167, “Synthesis and broad-spectrum antiviral activity of 7,8-dihydro-7-methyl-8-thioxoguanosine” (1990).

What was measured:
[1] = system: Banzi virus; assay: Indicates the number of animals that died and survivors lived through 21 days at 25 mg/kg against Banzi virus; type: functional
[2] = system: Banzi virus; assay: Indicates the number of animals that died and survivors lived through 21 days at 50 mg/kg against Banzi virus; type: functional
[3] = system: Coronaviridae; assay: Indicates the number of animals that died and survivors lived through 21 days at 100 mg/kg rat corona virus; type: functional, Coronavirus
[4] = system: Encephalomyocarditis virus; assay: Indicates the number of animals that died and survivors lived through 21 days at 50 mg/kg against EMC virus; type: functional
[5] = system: Encephalomyocarditis virus; assay: Indicates the number of animals that died and survivors lived through 21 days at 25 mg/kg against EMC virus; type: functional
[6] = system: San Angelo virus; assay: Indicates the number of animals that died and survivors lived through 21 days at 25 mg/kg against San Angelo virus; type: functional
[7] = system: San Angelo virus; assay: Indicates the number of animals that died and survivors lived through 21 days at 50 mg/kg against San Angelo virus; type: functional
[8] = system: Semliki Forest virus; assay: Indicates the number of animals that died and survivors lived through 21 days at 25 mg/kg against Forest virus; type: functional
[9] = system: Semliki Forest virus; assay: Indicates the number of animals that died and survivors lived through 21 days at 50 mg/kg against Forest virus; type: functional
[10] = Evaluated for its effect by the ratio between percent survivors and the total animals taken against Banzi virus infection at a dose of 25 mg/kg half-daily intraperitoneal doses at 24 and 18 hours before the virus inoculation; 11/12; type: functional
[11] = Evaluated for its effect by the ratio between percent survivors and the total animals taken against Banzi virus infection at a dose of 50 mg/kg half-daily intraperitoneal doses at 24 and 18 hours before the virus inoculation; 10/12; type: functional
[12] = Evaluated for its effect by the ratio between percent survivors and the total animals taken against EMC virus infection at a dose of 25 mg/kg half-daily intraperitoneal doses at 24 and 18 hours before the virus inoculation; 6/12; type: functional
[13] = Evaluated for its effect by the ratio between percent survivors and the total animals taken against EMC virus infection at a dose of 50 mg/kg half-daily intraperitoneal doses at 24 and 18 hours before the virus inoculation; 9/12; type: functional
[14] = Evaluated for its effect by the ratio between percent survivors and the total animals taken against San Angelo virus infection at a dose of 25 mg/kg half-daily intraperitoneal doses at 24 and 18 hours before the virus inoculation; 9/12; type: functional
[15] = Evaluated for its effect by the ratio between percent survivors and the total animals taken against San Angelo virus infection at a dose of 50 mg/kg half-daily intraperitoneal doses at 24 and 18 hours before the virus inoculation; 10/12; type: functional
[16] = Evaluated for its effect by the ratio between percent survivors and the total animals taken against Forest virus infection at a dose of 25 mg/kg half-daily intraperitoneal doses at 24 and 18 hours before the virus inoculation; 9/12; type: functional
[17] = Evaluated for its effect by the ratio between percent survivors and the total animals taken against Forest virus infection at a dose of 50 mg/kg half-daily intraperitoneal doses at 24 and 18 hours before the virus inoculation; 10/12; type: functional
[18] = Evaluated for its effect by the ratio between percent survivors and the total animals taken against rat corna virus infection at a dose of 100 mg/kg half-daily intraperitoneal doses at 24 and 18 hours before the virus inoculation; 7/12; type: functional
[19] = Ratio between percent survivors and the total animals taken against EMC virus infection at a dose of 50 mg/kg half-daily intraperitoneal doses at 24 and 18 hours before the virus inoculation; 9/12; type: functional
[20] = Ratio between percent survivors and the total animals taken against San Angelo virus infection at a dose of 25 mg/kg half-daily intraperitoneal doses at 24 and 18 hours before the virus inoculation; 11/12; type: functional
[21] = Ratio between percent survivors and the total animals taken against San Angelo virus infection at a dose of 50 mg/kg half-daily intraperitoneal doses at 24 and 18 hours before the virus inoculation; 11/12; type: functional
[22] = Ratio between percent survivors and the total animals taken against Forest virus infection at a dose of 25 mg/kg half-daily intraperitoneal doses at 24 and 18 hours before the virus inoculation; 8/12; type: functional
[23] = Ratio between percent survivors and the total animals taken against Forest virus infection at a dose of 50 mg/kg half-daily intraperitoneal doses at 24 and 18 hours before the virus inoculation; 9/12; type: functional
[24] = Ratio between percent survivors and the total animals taken against rat corona virus infection at a dose of 100 mg/kg half-daily intraperitoneal doses at 24 and 18 hours before the virus inoculation; 9/12; type: functional
[25] = Ratio between percent survivors and the total animals taken against Banzi virus infection at a dose of 50 mg/kg half-daily intraperitoneal doses at 24 and 18 hours before the virus inoculation; 12/12; type: functional
[26] = Ratio between percent survivors and the total animals taken against EMC virus infection at a dose of 25 mg/kg half-daily intraperitoneal doses at 24 and 18 hours before the virus inoculation; 8/12; type: functional
[27] = Ratio between percent survivors and the total animals taken against Banzi virus infection at a dose of 25 mg/kg half-daily intraperitoneal doses at 24 and 18 hours before the virus inoculation; 11/12; type: functional

Compound | Mean survival time [1] [days] | Mean survival time [2] [days] | Mean survival time [3] [days] | Mean survival time [4] [days] | Mean survival time [5] [days] | Mean survival time [6] [days] | Mean survival time [7] [days] | Mean survival time [8] [days] | Mean survival time [9] [days] | also measured
Cn1c(=S)n(C2O[C@H](CO)[C@@H](O)[C@H]2O)c2nc(N)nc(O)c21 (stereo partly specified) | 9 | 9 | 9.4 | 5.7 | 5.5 | 11.3 | 10.5 | 8 | 9 | Ratio [10]: 11; Ratio [11]: 10; Ratio [12]: 6; Ratio [13]: 9; Ratio [14]: 9; Ratio [15]: 10; Ratio [16]: 9; Ratio [17]: 10; Ratio [18]: 7
Cn1c(=O)n(C2O[C@H](CO)[C@@H](O)[C@H]2O)c2nc(N)nc(O)c21 (stereo partly specified) | 8 | >21 | 9.7 | 8 | 8.3 | 12 | 10 | 8.7 | 9.7 | Ratio [19]: 9; Ratio [20]: 11; Ratio [21]: 11; Ratio [22]: 8; Ratio [23]: 9; Ratio [24]: 9; Ratio [25]: 12; Ratio [26]: 8; Ratio [27]: 11
